Source: article PMC6269066, “A New Synthetic Route to Original Sulfonamide Derivatives in 2-Trichloromethylquinazoline Series: A Structure-Activity Relationship Study of Antiplasmodial Activity” (Molecules, 2012)
Like-named read-outs stand apart in the source and are kept apart here.

Legend:
[1] = tested on: multi-resistant K1 Plasmodium falciparum strain; test: in vitro antiplasmodial activity, K1 strain (Table 1); assay type: cell-based
[2] = tested on: multi-resistant W2 or K1 Plasmodium falciparum strains; test: in vitro antiplasmodial activity, 2-trichloromethylquinazoline series (Table 2); assay type: cell-based; conditions: for IC50: Plasmodium falciparum, read-out: IC50 P. falc.
[3] = cytotoxicity toward the human HepG2 cell line (CC50); conditions: HepG2 cells
[4] = tested on: multi-resistant W2 or K1 Plasmodium falciparum strains; parameters: method as in PMID 17981462, PMID 19482476, PMID 19926173, PMID 21741131, PMID 21852132; conditions: previously synthesized series (Table 2, entries 1-4); W2 or K1 strain; read-out: IC50 P. falc.; cited from earlier work
human HepG2 cell line [5] = tested on: human HepG2 cell line; parameters: method as in PMID 17981462, PMID 19482476, PMID 19926173, PMID 21741131, PMID 21852132; conditions: previously synthesized series (Table 2, entries 1-4); cited from earlier work
human HepG2 cell line [6] = tested on: human HepG2 cell line
in vitro = conditions: human
[7] = Plasmodium falciparum, P. falciparum K1 strain, highest tested concentration 10 µM, read-out: IC50 P fK1
[8] = P. falciparum K1 strain, highest tested concentration 10 µM, read-out: IC50 P fK1

SMILES | IC50 [1, 7] | melting point | CC50 [3] | also measured
Fc1ccc(-c2nc(C(Cl)(Cl)Cl)nc3ccccc23)cc1 [C00001] | – | – | – | IC50 [4]: 2.5 µM; SI (selectivity index) ([2]; SI = CC50/IC50, previously synthesized series (Table 2, entries 1-4)): >50; CC50 (human HepG2 cell line [5]): > 125 µM
O=S(=O)(Nc1nc(C(Cl)(Cl)Cl)nc2ccccc12)c1ccc2ccccc2c1 [8q, N-(2-trichloromethylquinazolin-4-yl)naphtalene-2-sulfonamide] | – | – | – | CC50 (human HepG2 cell line [6]): 48.8 µM; IC50 [1, 8]: > 10 µM
O=S(=O)(Nc1nc(C(Cl)(Cl)Cl)nc2ccccc12)c1ccc(Cl)cc1 [8e, 4-Chloro-N-(2-trichloromethylquinazolin-4-yl)benzenesulfonamide] | > 10 µM | > 260 °C | 71.1 µM | –
O=S(=O)(Nc1nc(C(Cl)(Cl)Cl)nc2ccccc12)c1ccc(Br)cc1 [8f, 4-Bromo-N-(2-trichloromethylquinazolin-4-yl)benzenesulfonamide] | > 10 µM | > 260 °C | 57.4 µM | –
O=S(=O)(Nc1nc(C(Cl)(Cl)Cl)nc2ccccc12)c1ccccc1F [8i, 2-Fluoro-N-(2-trichloromethylquinazolin-4-yl)benzenesulfonamide] | > 10 µM | 188 °C | 136 µM | –
O=S(=O)(Nc1nc(C(Cl)(Cl)Cl)nc2ccccc12)c1ccc(F)cc1 [8g, 4-Fluoro-N-(2-trichloromethylquinazolin-4-yl)benzenesulfonamide] | > 10 µM | > 260 °C | 69.5 µM | –
Cc1ccc(S(=O)(=O)Nc2nc(C(Cl)(Cl)Cl)nc3ccccc23)cc1 [8b, 4-Methyl-N-(2-trichloromethylquinazolin-4-yl)benzenesulfonamide] | > 10 µM | > 260 °C | 68.7 µM | –
O=S(=O)(Nc1nc(C(Cl)(Cl)Cl)nc2ccccc12)c1ccccc1 [8a, N-(2-Trichloromethylquinazolin-4-yl)benzenesulfonamide] | > 10 µM | 200 °C | 82 µM | –
O=S(=O)(Nc1nc(C(Cl)(Cl)Cl)nc2ccccc12)c1cccc(F)c1 [8h, 3-Fluoro-N-(2-trichloromethylquinazolin-4-yl)benzenesulfonamide] | > 10 µM | 194 °C | 106 µM | –
COc1ccc(S(=O)(=O)Nc2nc(C(Cl)(Cl)Cl)nc3ccccc23)cc1 [8c, 4-Methoxy-N-(2-trichloromethylquinazolin-4-yl)benzenesulfonamide] | > 10 µM | 196 °C | 102 µM | –
N#Cc1ccc(S(=O)(=O)Nc2nc(C(Cl)(Cl)Cl)nc3ccccc23)cc1 [8d, 4-Cyano-N-(2-trichloromethylquinazolin-4-yl)benzenesulfonamide] | > 10 µM | 204 °C | 73.8 µM | –
CCN(CC)CCCC(C)Nc1ccnc2cc(Cl)ccc12 (stereo not shown) [Chloroquine, reference compound] | – | – | – | IC50 ([1]; Plasmodium falciparum, K1, read-out: IC50 P fK1): 0.6 µM; IC50 [2]: 0.6 µM
O=[N+]([O-])c1ccc(S(=O)(=O)Nc2nc(C(Cl)(Cl)Cl)nc3ccccc23)cc1 [8j, 4-Nitro-N-(2-trichloromethylquinazolin-4-yl)benzenesulfonamide] | > 10 µM | 250 °C | 88.3 µM | –
O=S(=O)(Nc1nc(C(Cl)(Cl)Cl)nc2ccccc12)c1cccc2ccccc12 [8r, N-(2-trichloromethylquinazolin-4-yl)naphtalene-1-sulfonamide] | – | – | – | CC50 (human HepG2 cell line [6]): 47.8 µM; IC50 [1, 8]: > 10 µM
COc1cccc2c1C(=O)c1c(O)c3c(c(O)c1C2=O)C[C@@](O)(C(=O)CO)C[C@@H]3O[C@H]1C[C@H](N)[C@H](O)[C@H](C)O1 [Doxorubicine] | – | – | – | CC50 (in vitro): 0.2 µM

Continued, in another order:

IC50 [1, 7] | melting point | SMILES | CC50 [3] | also measured
6 µM | – | C[C@H]1c2cccc(O)c2C(=O)C2=C(O)[C@]3(O)C(=O)C(C(N)=O)=C(O)[C@@H](N(C)C)[C@@H]3[C@@H](O)[C@@H]21 [Doxycycline, reference compound] | 20 µM | IC50 ([2]; Table 2, sulfonamide series and reference drugs): 6 µM
> 10 µM | 191 °C | O=S(=O)(Nc1nc(C(Cl)(Cl)Cl)nc2ccccc12)c1cccs1 [8s, N-(2-trichloromethylquinazolin-4-yl)thiophene-2-sulfonamide] | 121 µM | –
> 10 µM | 204 °C | O=[N+]([O-])c1cccc(S(=O)(=O)Nc2nc(C(Cl)(Cl)Cl)nc3ccccc23)c1 [8k, 3-Nitro-N-(2-trichloromethylquinazolin-4-yl)benzenesulfonamide] | 120 µM | –
> 10 µM | 166 °C | O=S(=O)(Nc1nc(C(Cl)(Cl)Cl)nc2ccccc12)c1ccc(C(F)(F)F)cc1 [8m, N-(2-trichloromethylquinazolin-4-yl)-4-(trifluoromethyl)benzenesulfonamide] | 49 µM | –
> 10 µM | 205 °C | O=S(=O)(Nc1nc(C(Cl)(Cl)Cl)nc2ccccc12)c1ccccc1C(F)(F)F [8o, N-(2-trichloromethylquinazolin-4-yl)-2-(trifluoromethyl)benzenesulfonamide] | 73.8 µM | –
> 10 µM | 210 °C | O=S(=O)(Nc1nc(C(Cl)(Cl)Cl)nc2ccccc12)c1ccc(-c2ccccc2)cc1 [8p, N-(2-trichloromethylquinazolin-4-yl)biphenyl-4-sulfonamide] | 38.2 µM | –
> 10 µM | 186 °C | CS(=O)(=O)Nc1nc(C(Cl)(Cl)Cl)nc2ccccc12 [8t, N-(2-trichloromethylquinazolin-4-yl)methanesulfonamide] | 241 µM | –
> 10 µM | > 260 °C | O=[N+]([O-])c1ccccc1S(=O)(=O)Nc1nc(C(Cl)(Cl)Cl)nc2ccccc12 [8l, 2-Nitro-N-(2-trichloromethylquinazolin-4-yl)benzenesulfonamide] | 126 µM | –
> 10 µM | 255 °C | O=S(=O)(Nc1nc(C(Cl)(Cl)Cl)nc2ccccc12)c1cccc(C(F)(F)F)c1 [8n, N-(2-trichloromethylquinazolin-4-yl)-3-(trifluoromethyl)benzenesulfonamide] | 75.1 µM | –
